Test results: ChEMBL document CHEMBL1123114, “Structure-activity relationships of arylimidazopyridine cardiotonics: discovery and inotropic activity of 2-[2-methoxy-4-(methylsulfinyl)phenyl]-1H-imidazo[4,5-c]pyridine” (1985)

Assays:
[1] = organism: Felis catus; test: Compound tested for contractility in isolated cat papillary muscle at 10 e-4 M.; assay type: functional
[2] = organism: Felis catus; test: Compound tested for contractility in isolated cat papillary muscle at 10 e-5 M.; assay type: functional
[3] = organism: Felis catus; test: Response ratio = (percent increase to drug)/(percent increase to 10 E-4 M isoproterenol); assay type: functional
[4] = organism: Felis catus; test: Response ratio = (percent increase to drug)/(percent increase to 10 E-5 M isoproterenol); assay type: functional
[5] = system: Canis familiaris; test: Compound tested for contractility in anesthetized dog when administered intravenously.; assay type: functional; settings: Canis lupus familiaris, iv
[6] = system: Canis familiaris; test: Percent change in heart rate in anesthetized dog; assay type: functional, Canis lupus familiaris; further: test concentration or dose not given here
[7] = system: Canis familiaris; test: Percent change in mean arterial blood pressure in anesthetized dog; assay type: functional, Canis lupus familiaris; further: test concentration or dose not given here

SMILES	Control [1]	Control [2]	Response ratio [3]	Response ratio [4]	ED50 [5]	Change [6]	Change [7]
COc1ccc(-c2nc3cc[nH]cc-3n2)c(OCC[S+]([O-])c2ccccc2)c1 (stereo unspecified)	96%	107%	-0.05	0.1	–	–	–
CCCOc1cc(SC)ccc1-c1nc2cc[nH]cc-2n1	–	–	–	–	1.2 mg/kg	-3%	-62%
COc1c(C)cc(-c2nc3cc[nH]cc-3n2)cc1C	213%	121%	1.57	0.29	–	–	–
Cc1ccc(-c2nc3cc[nH]cc-3n2)c(C)c1	100%	93%	0	-0.1	1.4 mg/kg	12%	-24%
COc1cc(C)ccc1-c1nc2cc[nH]cc-2n1	202%	117%	1.42	0.24	0.28 mg/kg	8%	-7%
Clc1ccc(-c2nc3cc[nH]cc-3n2)c(Cl)c1	171%	116%	0.99	0.22	0.7 mg/kg	17%	-22%
COc1ccc(-c2nc3cc[nH]cc-3n2)c(SC)c1	204%	114%	1.44	0.19	–	–	–
COc1cc(OC)c(-c2nc3cc[nH]cc-3n2)c(OC)c1	137%	103%	0.51	0.04	–	–	–
COc1ccc(-c2nc3ccc[nH]c-3n2)c(OC)c1	264%	172%	2.27	1	0.8 mg/kg	18%	-22%
CCOc1cc(S(C)(=O)=O)ccc1-c1nc2cc[nH]cc-2n1	198%	137%	1.36	0.51	0.07 mg/kg	7%	-11%
COc1ccc(-c2nc3cc[nH]cc-3n2)c(C)c1	145%	119%	0.63	0.26	–	–	–
Cc1ccccc1-c1nc2cc[nH]cc-2n1	188%	106%	1.22	0.09	2.2 mg/kg	24%	-20%
CCCSc1ccc(-c2nc3cc[nH]cc-3n2)c(OC)c1	139%	125%	0.54	0.35	–	–	–
Cc1ccc(-c2nc3cc[nH]cc-3n2)cc1	196%	97%	0.96	-0.04	–	–	–
Fc1cccc(-c2nc3cc[nH]cc-3n2)c1	157%	112%	0.79	0.17	–	–	–
CCSCCOc1cc(OC)ccc1-c1nc2cc[nH]cc-2n1	134%	128%	0.47	0.39	1 mg/kg	20%	-21%
CCCCCOc1cc(OC)ccc1-c1nc2cc[nH]cc-2n1	81%	105%	-0.26	0.07	–	–	–
COc1ccc(-c2nc3cc[nH]cc-3n2)cc1OC	252%	164%	2.11	0.89	0.4 mg/kg	15%	-9%
COc1ccc(-c2nc3cc[nH]cc-3n2)c(OCCCSC)c1	129%	118%	0.41	0.25	–	–	–
COCCCOc1cc(OC)ccc1-c1nc2cc[nH]cc-2n1	147%	99%	0.65	-0.01	–	–	–
COc1cc(OC)c(-c2nc3cc[nH]cc-3n2)cc1OC	129%	108%	0.4	0.12	–	–	–
Cc1cccc(-c2nc3ccc[nH]c-3n2)c1	–	–	–	–	2.8 mg/kg	18%	-27%
COc1cc(OC)cc(-c2nc3cc[nH]cc-3n2)c1	179%	115%	1.1	0.21	–	–	–
COc1cc(-c2nc3cc[nH]cc-3n2)cc(OC)c1OC	151%	109%	0.71	0.12	–	–	–
COc1cc(OCc2ccccc2)ccc1-c1nc2cc[nH]cc-2n1	105%	112%	0.07	0.17	–	–	–
CS(=O)(=O)c1ccc(-c2nc3ccc[nH]c-3n2)cc1	–	–	–	–	18 mg/kg	8%	-2%
COc1cc(Br)ccc1-c1nc2cc[nH]cc-2n1	175%	134%	1.04	0.47	–	–	–

SMILES	Control [1]	Control [2]	Response ratio [3]	Response ratio [4]	ED50 [5]	Change [6]	Change [7]
COc1ccc(-c2nc3ccc[nH]c-3n2)cc1OC	116.5%	103%	0.22	0.04	–	–	–
c1ccc(Sc2ccc(-c3nc4cc[nH]cc-4n3)cc2)cc1	124%	122%	0.33	0.31	–	–	–
COc1cccc(-c2nc3cc[nH]cc-3n2)c1OC	90%	102%	-0.14	0.03	–	–	–
COc1cccc(-c2nc3cc[nH]cc-3n2)c1	214%	115%	1.58	0.21	–	–	–
CC[S+]([O-])c1ccc(-c2nc3cc[nH]cc-3n2)c(OC)c1 (stereo unspecified)	170%	136%	1	0.5	–	–	–
CCOc1cc(OC)ccc1-c1nc2cc[nH]cc-2n1	130%	108%	0.41	0.11	–	–	–
Fc1ccccc1-c1nc2cc[nH]cc-2n1	145%	107%	0.63	0.1	–	–	–
COc1ccc(OC)c(-c2nc3cc[nH]cc-3n2)c1	169%	110%	0.96	0.14	–	–	–
COc1ccc(-c2nc3cc[nH]cc-3n2)c([S+](C)[O-])c1 (stereo unspecified)	116%	107%	0.22	0.1	–	–	–
COc1ccccc1-c1nc2cc[nH]cc-2n1	200%	120%	1.38	0.28	–	–	–
CCSc1ccc(-c2nc3cc[nH]cc-3n2)c(OC)c1	196%	136%	1.33	0.5	–	–	–
COc1cc(I)ccc1-c1nc2cc[nH]cc-2n1	159%	139%	0.82	0.54	–	–	–
N#Cc1ccc(-c2nc3ccncc3[nH]2)cc1	164%	112%	0.89	0.16	–	–	–
COc1cc(F)ccc1-c1nc2cc[nH]cc-2n1	142%	120%	0.58	0.28	–	–	–
COCCOc1cc(OC)ccc1-c1nc2cc[nH]cc-2n1	116%	109%	0.22	0.12	–	–	–
CSc1ccc(-c2nc3cc[nH]cc-3n2)c(SC)c1	161%	113%	0.84	0.18	–	–	–
COc1ccc(-c2nc3cc[nH]cc-3n2)c(OCCSc2ccccc2)c1	109%	103%	0.12	0.04	–	–	–
COc1cccc(OC)c1-c1nc2cc[nH]cc-2n1	184%	78%	1.16	-0.31	–	–	–
COc1cc(SC)ccc1-c1nc2c[nH]cnc-2n1	131%	109%	0.43	0.12	–	–	–
Clc1cc(Cl)cc(-c2nc3cc[nH]cc-3n2)c1	146%	115%	0.64	0.21	–	–	–
c1ccc(-c2nc3ccccc3[nH]2)cc1	134%	105%	0.47	0.07	–	–	–
CCCCOc1cc(OC)ccc1-c1nc2cc[nH]cc-2n1	140%	100%	0.55	0	–	–	–
COc1cc(N(C)C)ccc1-c1nc2cc[nH]cc-2n1	165%	102%	0.9	0.03	–	–	–
CCOc1cc(SC)ccc1-c1nc2cc[nH]cc-2n1	149%	122%	0.68	0.3	–	–	–
CSc1ccc(-c2nc3ccc[nH]c-3n2)cc1	–	–	–	–	1.9 mg/kg	27%	-7%
COc1cc(-c2nc3cc[nH]cc-3n2)ccc1[S+](C)[O-] (stereo unspecified)	154%	111%	0.75	0.15	–	–	–
Fc1ccc(-c2nc3cc[nH]cc-3n2)cc1	163%	105%	0.87	0.06	–	–	–
